# Assay results from patent US20200129476A1, “PARP Inhibitor in Combination with a Glucocorticoid and/or Ascorbic Acid and/or a Protein Growth Factor for the Treatment of Impaired Wound Healing” (AKRIBES BIOMEDICAL GMBH, priority 2017, published 2020).
# “Also recorded” adds a separate entry of the source.
# B1: PDGF: Platelet-derived growth factor, protein growth factor (Tonbo Biosciences) (protein, UniProt P01127 82-190, looked up)
# Platelet-derived growth …: SLGSLTIAEPAMIAECKTRTEVFEISRRLIDRTNANFLVWPPCVEVQRCSGCCNNRNVQCRPTQVQLRPVQVRKIEIVRKKPIFKKATVTLEDHLACKCETVAAARPVT
# modifications: PDGF-BB homodimer
# Assays:
# [1] = system: primary human dermal fibroblasts (HDF); assay: Primary human dermal fibroblast (HDF) proliferation assay (2D), with or without wound exudate; assay type: cell-based; conditions: for cell proliferation under wound exudate-induced inhibition: FIG. 22, WE #43 and #78 used with veliparib; for HDF proliferation, PARP inhibitor plus PDGF: PARP inhibitor dose series + PDGF 20 ng/ml, WE #78 (FIG. 18); for enhancement of PARP inhibitor effect on fibroblast proliferation: added to PARP inhibitor titration
# Description: (§1) Primary human dermal fibroblasts (HDF) were purchased from CELLnTEC, Bern. They were routinely grown in Dulbecco's modified Eagle's medium (DMEM) containing 10% FCS, 2 mM glutamine, and 100 U/ml penicillin/100 μg/ml streptomycin. Media, antibiotics, and glutamine were bought from Lonza. The cells were used at passage 5-15. Cells were trypsinized and seeded at 5000 cells/well in 200 μl into the inner wells of 96-well plates. The outer wells were loaded with sterile water. The cells were allowed to adhere overnight and then incubated for 72 hours at 37° C. under the following conditions: graded compound concentrations or 20 ng/ml PDGF-BB (Tonbo Biosciences) in the absence or presence of different dilutions of sterile-filtered WE in medium. For control samples, 200p1 medium was added instead of specific stimuli. Alternatively, the cells were seeded into 384-well plates at 2500 cells/well directly together with test compounds or growth factors and WE or medium in a total volume of […].
# (§2) At the end of the 72-hour incubation period, supernatants were removed for the determination of IL-1ß, and the cells were fixed with 4% paraformaldehyde (Morphisto) for 15 minutes at room temperature and washed 3 times with PBS. A control plate was fixed after the overnight adherence of the cells (day 1) to determine the starting cell number.
# Total cellular protein was determined as a measure of cell number by staining the fixed cells with sulforhodamine B (SRB, Sigma). A 0.4% SRB solution in 1% acetic acid was added to the wells for 30 minutes. The wells were then washed with 1 acetic acid until the wash solution remained colorless. After drying, the dye was eluted with 10 mM Tris.HCl, pH8.5, and absorbance was measured either at 550 or 492 nm for lower and higher cell densities, respectively. The average absorbance of the sample representing the day 1 starting cell number (for 96-well plates) was subtracted from the absorbance values of the WE-treated cells.
# All experiments were carried out in triplicate for each sample and concentration, and means±standard deviation (SD) were used for the evaluation of the experiment. Results are expressed as percentage of control values for unstimulated cells.
# (§3) Low molecular weight compounds (see list in Table 1) were dissolved in DMSO (Bioreagent for cell culture, Sigma) at 10 mM or 100 mM and diluted at least 1:1000 in medium for cellular assays (final DMSO concentration ≤0.1%).
# (§4) Cells were incubated with compounds for 72 hours in proliferation assays and up to 8 days for FDM assay (refreshed after 4 days). When compounds were tested for their effect on WE stimulation, the incubation of cells with compounds was started and ended simultaneously with WE-incubation.
# IL-1ß = IL-1ß secretion by HDF in the presence of wound exudate (ELISA); assay type: cell-based, human; conditions: FIG. 22; WE #43 and #78 used with veliparib
# Description: as §1, §2
# IL-1ß levels were determined with a commercial ELISA kit. The amount of IL-1ß contained in the wound exudate added to the cells was subtracted from the total IL-ß in the supernatants in order to determine the cytokine secreted by the cells.
# [2] = system: primary human dermal fibroblasts (HDF); assay: Fibroblast-derived matrix (FDM) formation assay (3D), with or without wound exudate; assay type: cell-based; conditions: for FDM formation, veliparib combined with glucocorticoid: WE #78, patient with diabetes, immunosuppression after kidney transplantation (FIG. 7)
# Description: HDF cells were seeded at 5000 cells/well on day −3 into 96-well tissue culture plates (1250 cells/well for 384-well plates), which had been pre-coated for 1 hour at 37° C. with 0.2% gelatin solution (Sigma). When the cells reached confluence (=day 0), a matrix promoting supplement (vitamin C: 2-phospho-L-ascorbic acid trisodium salt, 100 μg/ml; Sigma) was added together with test samples containing PDGF-BB, TGF-ß1 or graded concentrations of compounds −/+WE as described for the HDF proliferation assay. After 4 days, medium was replaced by fresh vitamin C- and stimulus- as well as compound-containing medium, maintaining the conditions initiated on day 0. TGF-ß1 and PDGF-BB were included as positive controls to promote FDM formation and cell growth, respectively. After a total incubation time of 8 days, FDM production was measured in fixed cultures via SRB staining and evaluated as described above. In some cases, the experiment was stopped and evaluated already on day 4.
# as §3, with “≤0.1%). Compounds were typically tested in half-logarithmic dilution series (1:3.33), starting at 10 μM or 100 μM as the highest compound concentration.” for “≤0.1%).”
# as §4
# [3] = system: alpha-smooth muscle actin (α-SMA); assay: Immunolocalization of alpha-smooth muscle actin in 2D fibroblast culture (myofibroblast differentiation); assay type: cell-based, human; conditions: TGF-ß 20 ng/ml
# Description: as §1, with “The cells were allowed to adhere overnight and then incubated for 72 hours at 37° C. under the following conditions: graded compound concentrations or 20 ng/ml PDGF-BB (Tonbo Biosciences) in the absence or presence of different dilutions of sterile-filtered WE in medium.” left out
# After fixation with paraformaldehyde, the cells were incubated for 1 hour at room temperature with a monoclonal mouse-anti-human antibody against alpha-smooth muscle actin (α-SMA) from e-Bioscience, washed 3 times with PBS and developed with an Alexa Fluor-labelled donkey-anti-mouse IgG (Molecular Probes). The cells were washed 3 times with PBS and examined in a Zeiss ZEISS Observer.Z1 microscope, using the software AxioVision 48.
# [4] = presence of WE #78 (diabetic patient)
# [5] = presence of wound exudate (WE) of patients, several or unspecified WE
# [6] = presence of ⅔ of the wound exudates tested
# [7] = absence of wound exudate (normal medium)
molecule,measurement,setting,value
"Oc1cccc2c(O)nccc12 [1,5-IQD, 1,5-Isoquinolinediol]",fibroblast (HDF) proliferation,[1]; presence of WE #43,less active or inactive
same,fibroblast (HDF) proliferation,[1]; [4],less active or inactive
"NC(=O)c1cccc(N)c1 [3-AB, 3-Aminobenzamide]",fibroblast (HDF) proliferation,[1]; presence of WE #43,less active or inactive
same,fibroblast (HDF) proliferation,[1]; [4],less active or inactive
CN(C)Cc1ccc(-c2nc3cccc4c3n2CCNC4=O)cc1 [AG-14361],IL-1ß secretion induced by wound exudate,IL-1ß,reducing IL-1ß secretion
same,fibroblast-derived matrix (FDM) formation,[2]; presence of WE #78 (FIG. 9),strong positive effect
same,cell proliferation under wound exudate-induced inhibition,[1],enhanced cell proliferation
COC1CCN(C(=O)c2cc(Cc3n[nH]c(=O)c4ccccc34)ccc2F)CC1 [AZD-2461],IL-1ß secretion induced by wound exudate,IL-1ß,reducing IL-1ß secretion
same,fibroblast-derived matrix (FDM) formation,[2]; presence of WE #78 (FIG. 9),strong positive effect
same,cell proliferation under wound exudate-induced inhibition,[1],enhanced cell proliferation
"CN(C)CC(=O)Nc1ccc2[nH]c(=O)c3ccccc3c2c1.Cl [PJ-34, N-(6-Oxo-5,6-dihydro-phenanthridin-2-yl)-N,N-dimethylacetamide.HCl]",fibroblast (HDF) proliferation,[1]; presence of WE #43,less active or inactive
same,fibroblast (HDF) proliferation,[1]; [4],less active or inactive
C[C@H]1C[C@H]2[C@@H]3CCC4=CC(=O)C=C[C@]4(C)[C@@]3(Cl)[C@@H](O)C[C@]2(C)[C@@]1(O)C(=O)CO [beclomethasone],fibroblast (HDF) proliferation,[1]; [5],Qualitatively identical results
"CC1(COc2ccc3c(c2)ncn3-c2ccc3cccc(N4CCC(N)CC4)c3n2)COC1 [crenolanib, Crenolanib]",effect on PDGF-enhanced proliferation,"[1]; crenolanib 1 μM, PDGF 20 ng/ml, absence of WE (FIG. 19)",completely abrogated
same,fibroblast (HDF) proliferation,[1]; [4],without any effect
C[C@@H]1C[C@H]2[C@@H]3C[C@H](F)C4=CC(=O)C(Cl)=C[C@]4(C)[C@@]3(F)[C@@H](O)C[C@]2(C)[C@@]1(O)C(=O)CO [halomethasone],fibroblast (HDF) proliferation,[1]; [5],Qualitatively identical results
"C[C@]12CCC(=O)C=C1CC[C@@H]1[C@@H]2[C@@H](O)C[C@@]2(C)[C@H]1CC[C@]2(O)C(=O)CO [hydrocortisone, Hydrocortisone]",fibroblast (HDF) proliferation,[1]; [5],Qualitatively identical results; also recorded: effect was confirmed
O=C(c1cc(Cc2n[nH]c(=O)c3ccccc23)ccc1F)N1CCN(C(=O)C2CC2)CC1 [olaparib],IL-1ß secretion induced by wound exudate,IL-1ß,reducing IL-1ß secretion
same,fibroblast-derived matrix (FDM) formation,[2]; presence of WE #78 (FIG. 9),strong positive effect
same,cell proliferation under wound exudate-induced inhibition,[1],enhanced cell proliferation
same,"HDF proliferation, PARP inhibitor plus PDGF",[1],even further enhanced by the addition of PDGF
same,fibroblast (HDF) proliferation,[1]; [4],dose-dependent increase of HDF proliferation
"C[C@]12C=CC(=O)C=C1CC[C@@H]1[C@@H]2[C@@H](O)C[C@@]2(C)[C@H]1CC[C@]2(O)C(=O)CO [prednisolone, Prednisolone]",fibroblast (HDF) proliferation,[1]; [5],Qualitatively identical results; also recorded: effect was confirmed
C[C@]12C=CC(=O)C=C1CC[C@@H]1[C@@H]2[C@@H](O)C[C@@]2(C)[C@H]1CC[C@]2(O)C(=O)CO [prelone],fibroblast (HDF) proliferation,[1]; [5],Qualitatively identical results
CNCc1ccc(-c2[nH]c3cc(F)cc4c3c2CCNC4=O)cc1 [rucaparib],IL-1ß secretion induced by wound exudate,IL-1ß,reducing IL-1ß secretion
same,fibroblast-derived matrix (FDM) formation,[2]; presence of WE #78 (FIG. 9),strong positive effect
same,cell proliferation under wound exudate-induced inhibition,[1],enhanced cell proliferation
same,"HDF proliferation, PARP inhibitor plus PDGF",[1],even further enhanced by the addition of PDGF
same,fibroblast (HDF) proliferation,[1]; [4],dose-dependent increase of HDF proliferation
"O=C1O[C@H]([C@@H](O)CO)C(O)=C1O [vitamin C, ascorbic acid]",fibroblast-derived matrix (FDM/ECM) formation,[2]; absence of wound exudate,enhances both fibroblast proliferation in the fibroblast proliferation assay (also called 2D assay) and fibroblast-derived matrix (FDM) formation
same,fibroblast-derived matrix (FDM) formation,[2]; [6],no effect on fibroblast proliferation in the 2D assay or fibroblast-derived matrix (FDM) formation in the 3D assay
same,fibroblast (HDF) proliferation,[1]; [7],enhances HDF proliferation/ECM formation; also recorded: enhances both fibroblast proliferation
same,enhancement of PARP inhibitor effect on fibroblast proliferation,"[1]; WE #43, different patient (FIG. 15)",strong and consistent synergistic effect could be confirmed; also recorded: synergistically enhance the PARP inhibitor compound effects
same,enhancement of PARP inhibitor effect on fibroblast proliferation,"[1]; dexamethasone 3 nM, vitamin C 100 μg/ml, WE #78 (FIG. 14)",enhance the positive enhancing effect of the PARP antagonists; also recorded: synergistically enhance the PARP inhibitor compound effects
same,fibroblast (HDF) proliferation,[1]; [6],no effect on HDF proliferation/ECM formation; also recorded: no effect on fibroblast proliferation in the 2D assay
Medroxyprogesterone,"FDM formation, veliparib combined with glucocorticoid",[2],enhance the effect of veliparib on rescuing fibroblast-derived matrix (FDM) formation after wound exudate treatment
same,"FDM formation, veliparib combined with glucocorticoid",[2]; listed as MED,enhance the effect of veliparib on rescuing FDM formation after WE treatment
same,fibroblast-derived matrix (FDM/ECM) formation,"[2]; presence of wound exudate, WE not specified (FIG. 6: microscopy)",surprisingly enhances HDF proliferation and ECM formation
same,fibroblast (HDF) proliferation,[1]; [5],Qualitatively identical results; also recorded: surprisingly enhances HDF proliferation and ECM formation; also recorded: effect was confirmed
"TGF-ß: Transforming growth factor beta, protein growth factor",staining for α-SMA,"[3]; absence of WE, veliparib 10 μM",increased the staining for the myofibroblast marker alpha-smooth muscle actin (α-SMA)
same,staining for α-SMA,[3]; presence of WE #78,does not induce α-SMA on its own; also recorded: did not induce α-SMA on its own
B1,"HDF proliferation, PDGF added to talazoparib","[1]; PDGF 20 ng/ml + talazoparib 0.3 μM, WE #78 (FIG. 19)",further enhanced this recovery
same,fibroblast (HDF) proliferation,[1]; [7],induces HDF proliferation; also recorded: enhances proliferation
same,fibroblast (HDF) proliferation,[1]; [4],has no effect; also recorded: inactive; also recorded: without any effect
